Experimental data taken from patent US6537744B1, “Use of biomarkers in saliva to evaluate the toxicity of agents and the function of tissues in both biomedical and environmental applications” (priority 1995, dated 2003).

Test system: carboxylase in human saliva
Experiment: Inhibition of carboxylase in human saliva (p-nitrophenylvalerate hydrolysis, 400 nm)
Assay type: biochemical
Experimental: The carboxylase activity in saliva samples is monitored by the hydrolysis of p-nitrophenylvalerate to the readily detectable p-nitrophenol. The concentration of p-nitrophenol in the sample is measured spectrophotometrically at 400 nm, and the value is calculated from p-nitrophenol standard curve (Table 3 and FIG. 4). Values for carboxylase activity in saliva (nmol. min-1 per mL of saliva) are presented in Tables 4-8 and showing in FIG. 5 and FIG. 6. The average specific activity for carboxylase in human saliva is about 47 nmol min^−1 per mL.
The assay for carboxylase consists of 4 mL of tris-HCl buffer (pH 7.0) that contain 25 μL of p-nitrophenylvalerate (13.8 mg/mL of alcohol) and 50-500 μL of human saliva. […] In the inhibition study, the agent is incubated with saliva for about 15-20 minutes before the addition of p-nitrophenylvalerate. Organophosphate concentration is verified by gas chromatography using standard methods as described by Knaak et al. (1993).

[1] = 1.0 ng/ml, Test #2, 0.2 mL saliva, 15 min preincubation at 37° C., 30 min with substrate
[2] = 2.9 ng/ml, Test #2, 0.2 mL saliva, 15 min preincubation at 37° C., 30 min with substrate
[3] = 8.6 ng/ml, Test #2, 0.2 mL saliva, 15 min preincubation at 37° C., 30 min with substrate
[4] = 26 ng/mL, Test #1, 100 μL saliva, 15 min preincubation at 37° C.
[5] = 52 ng/mL, Test #1, 100 μL saliva, 15 min preincubation at 37° C.
[6] = 78 ng/mL, Test #1, 100 μL saliva, 15 min preincubation at 37° C.
[7] = 156 ng/mL, Test #1, 100 μL saliva, 15 min preincubation at 37° C.
[8] = 312 ng/mL, Test #1, 100 μL saliva, 15 min preincubation at 37° C.
[9] = 625 ng/mL, Test #1, 100 μL saliva, 15 min preincubation at 37° C.
[10] = 175 μg/ml, test #1, 200 μL saliva, 15 min preincubation, 37° C.
[11] = .04 ng/ml, Test #2, 0.2 mL saliva, 15 min preincubation at 37° C., 30 min with substrate
[12] = .1 ng/ml, Test #2, 0.2 mL saliva, 15 min preincubation at 37° C., 30 min with substrate
[13] = .3 ng/ml, Test #2, 0.2 mL saliva, 15 min preincubation at 37° C., 30 min with substrate

## CCOP(N)(=O)Oc1ccccc1C(=O)OC(C)C (stereo not drawn) [DNIO, des N-Isofenphos-oxon]
[1]
  % Activity: 57%
  % Inhibition: 43%
  Absorb. at 400 nm: .46
  nmol/min per mg protein: 7.46 nmol/min per mg protein
[2]
  % Activity: 50%
  % Inhibition: 50%
  Absorb. at 400 nm: .40
  nmol/min per mg protein: 6.55 nmol/min per mg protein
[3]
  % Activity: 40%
  % Inhibition: 60%
  Absorb. at 400 nm: .32
  nmol/min per mg protein: 5.24 nmol/min per mg protein
[4]
  % Activity: 3%
  % Inhibition: 97%
  Absorb. at 400 nm for 20 min.: .02
  Absorb. at 400 nm for 40 min.: .03
  Absorb. at 400 nm for 80 min: .02
[5]
  % Activity: 5%
  % Inhibition: 95%
  Absorb. at 400 nm for 20 min.: .03
  Absorb. at 400 nm for 40 min.: .03
  Absorb. at 400 nm for 80 min: .03
[6]
  % Activity: 3%
  % Inhibition: 97%
  Absorb. at 400 nm for 20 min.: .02
  Absorb. at 400 nm for 40 min.: .02
  Absorb. at 400 nm for 80 min: .02
[7]
  % Activity: 5%
  % Inhibition: 95%
  Absorb. at 400 nm for 20 min.: .02
  Absorb. at 400 nm for 40 min.: .02
  Absorb. at 400 nm for 80 min: .03
[8]
  % Activity: 13%
  % Inhibition: 87%
  Absorb. at 400 nm for 20 min.: .04
  Absorb. at 400 nm for 40 min.: .06
  Absorb. at 400 nm for 80 min: .08
[9]
  % Activity: 16%
  % Inhibition: 84%
  Absorb. at 400 nm for 20 min.: .05
  Absorb. at 400 nm for 40 min.: .07
  Absorb. at 400 nm for 80 min: .10
5 μg/mL, Test #2, 50 μL saliva, 20 min preincubation
  % Act.: 35%
[10]
  % Inhib.: 92%
  Absorb. at 400 nm for 20 min.: .16
  Absorb. at 400 nm for 60 min.: .55
[11]
  % Activity: 94%
  % Inhibition: 6%
  Absorb. at 400 nm: .75
  nmol/min per mg protein: 12.31 nmol/min per mg protein
[12]
  % Activity: 83%
  % Inhibition: 17%
  Absorb. at 400 nm: .66
  nmol/min per mg protein: 10.87 nmol/min per mg protein
[13]
  % Activity: 78%
  % Inhibition: 22%
  Absorb. at 400 nm: .62
  nmol/min per mg protein: 10.21 nmol/min per mg protein
carboxylase, human saliva
  effective concentration for 50% inhibition EC50: 3 ng/mL
Human saliva
  inhibition of carboxylase (in words): inhibited
